We go through 12 molecules from ChEMBL document CHEMBL3400004, “Novel fused tetrathiocines as antivirals that target the nucleocapsid zinc finger containing protein of the feline immunodeficiency virus (FIV) as a model of HIV infection” (Bioorg Med Chem Lett, 2015).

Some results are limits rather than exact numbers.

In data set [1] the test system is Feline immunodeficiency virus. The data set can be described thus: Antiviral activity against Feline immunodeficiency virus infected in cat FL-4 cells assessed as inhibition of viral replication after 7 days by quantitative RT-PCR analysis. The format is functional, organism-based. Conditions: FL-4, 168 h.
A short description of data set [2]: Therapeutic index, ratio of CC50 for cat FL-4 cells to EC50 for Feline immunodeficiency virus infected in cat FL-4 cells. The format is cell-based. Conditions: read-out: Ratio CC50/EC50.
The nature of data set [3]: Cytotoxicity against cat CRFK cells assessed as cell viability at 10 uM after 24 hrs by MTT assay. The conditions noted are these: read-out: Activity. It is filed as cell-based, Felis catus. For orientation: Formazan colour is commonly taken as a measure of viable cells.
Data set [4] in a line: Cytotoxicity against IL2-independent cat FL-4 cells assessed as reduction in cell viability after 7 days by MTT assay. The format is cell-based, Felis catus. Conditions: IL2-independent FL-4 cells.

As for `Cc1c2c(c(C)n1Cc1ccccc1)SSc1c(c(C)n(Cc3ccccc3)c1C)SS2`, the EC50 (commonly the concentration giving half of the maximal effect) in data set [1] came out at 3.08 µM. Also, the selectivity ratio in data set [2] amounted to 18.9. Also, the viability at 24 h, 10 µM in data set [3] is > 100%. Also, the CC50 – broadly, the concentration giving 50% cytotoxicity – at 168 h in data set [4] came out at 58.2 µM.

For the molecule `COc1cc2c(cc1OC)SSc1cc(OC)c(OC)cc1SS2`, in data set [1], the EC50 was found to be 0.0309 µM. The selectivity ratio in data set [2] was > 3240. Further, in data set [3], the viability at 24 h, 10 µM is 75.3%. Also, the CC50 at 168 h in data set [4] was > 100 µM.

For `Cn1c2c(c3ccccc31)SSc1c(c3ccccc3n1C)SS2`, the EC50 in data set [1] is 0.0429 µM. Besides, the selectivity ratio in data set [2] is > 2330. Besides, the viability at 24 h, 10 µM in data set [3] was > 100%. Besides, the CC50 at 168 h in data set [4] is > 100 µM.

With `CC(C)(C)n1cc2c(c1)SSc1cn(C(C)(C)C)cc1SS2`, the EC50 in data set [1] was determined as 14.5 µM. In addition, the selectivity ratio in data set [2] was > 6.9. In addition, the viability at 24 h, 10 µM in data set [3] was > 100%. For the same molecule, in data set [4], the CC50 at 168 h was > 100 µM.

Turning to `CCN(CC)c1sc(N(CC)CC)c2c1SSc1c(N(CC)CC)sc(N(CC)CC)c1SS2`, the EC50 in data set [1] was > 100 µM. Also, the selectivity ratio in data set [2] turned out to be 1. For the same molecule, the viability at 24 h, 10 µM in data set [3] is > 100%. Further, in data set [4], the cytotoxic concentration (CC50) at 168 h was > 100 µM.

As to `c1c2c(cc3c1SSc1cc4c(cc1SS3)OCO4)OCO2`, in data set [1], the EC50 came to 0.0932 µM. In data set [2], the selectivity ratio turned out to be 62.1. Besides, the viability at 24 h, 10 µM in data set [3] amounted to 77%. Besides, the half-maximal cytotoxic concentration (CC50) at 168 h in data set [4] turned out to be 5.79 µM.

Turning to `Cn1c(Cl)c2c(c1Cl)SSc1c(c(Cl)n(C)c1Cl)SS2`, the EC50 in data set [1] was 0.205 µM. Moreover, in data set [2], the selectivity ratio was > 489. Further, in data set [3], the viability at 24 h, 10 µM is > 100%. In data set [4], the 50% cytotoxic concentration (CC50) at 168 h is > 100 µM.

As to `Cc1cn([C@H]2C[C@H](N=[N+]=[N-])[C@@H](CO)O2)c(=O)[nH]c1=O` [ZIDOVUDINE], the selectivity ratio in data set [2] is > 18.8. In addition, the viability at 24 h, 10 µM in data set [3] is > 100%. Also, the 50% cytotoxic concentration (CC50) at 168 h in data set [4] was > 100 µM.

As to `c1c2c(cc3c1SSc1cc4c(cc1SS3)OCCO4)OCCO2`, the EC50 in data set [1] is 0.0689 µM. In data set [2], the selectivity ratio is > 1450. In data set [3], the viability at 24 h, 10 µM came out at 91.1%. The CC50 at 168 h in data set [4] was > 100 µM.

For `CCn1c(C)c2c(c1C)SSc1c(c(C)n(CC)c1C)SS2`, the 50% effective concentration (EC50) in data set [1] is 60.7 µM. The selectivity ratio in data set [2] was determined as 1.6. Besides, the viability at 24 h, 10 µM in data set [3] is > 100%. The CC50 at 168 h in data set [4] is > 100 µM.

For the molecule `Cc1nnc(C(=O)NC(C)(C)c2nc(C(=O)NCc3ccc(F)cc3)c(O)c(=O)n2C)o1` [RALTEGRAVIR], in data set [2], the selectivity ratio is > 10000. For the same molecule, the viability at 24 h, 10 µM in data set [3] is > 100%. Further, in data set [4], the CC50 at 168 h is > 100 µM.

As for `CCn1c(Cl)c2c(c1Cl)SSc1c(c(Cl)n(CC)c1Cl)SS2`, in data set [1], the 50% effective concentration (EC50) is > 100 µM. In addition, the selectivity ratio in data set [2] came to 1. Moreover, the viability at 24 h, 10 µM in data set [3] is > 100%. Moreover, the CC50 at 168 h in data set [4] is > 100 µM.
